Test results: ChEMBL document CHEMBL1201862, “PubChem BioAssay data set” (2004)
Calls of active or inactive are those of the source.

Legend:
[1] = Luminescence Cell-Based Dose Confirmation HTS to Identify Activators of 5'UTR Stem-Loop Driven Alpha-Synuclein mRNA Translation in H4 Neuroglioblastoma Cells. [Related pubchem assays: 1829 (Project Summary), 1814 (Primary HTS)]; assay type: functional
[2] = Luminescence Cell-Based Dose Response HTS to Identify Activators of Luciferase Translation or Activity in H4 […] Cells. [Related pubchem assays: 1829 (Project Summary), 1814 (Primary HTS)]; assay type: functional
[3] = system: H4; assay: Luminescence Cell-Based Dose Response HTS to Identify Activators of 5'UTR Stem-Loop Driven Prion Protein mRNA Translation in H4 Neuroglioblastoma Cells. [Related pubchem assays: 1829 (Project Summary), 1814 (Primary HTS)]; assay type: functional; details: Homo sapiens
[4] = inhibitors of Vif binding to APOBEC3G peptide, primary screen, biochemical, TR-FRET, GST-Vif 1-94, biotin-A3G peptide, dose response retest (AID 1117319); assay type: functional;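 also: TR-FRET signal of purified GST-Vif binding a biotinylated A3G peptide; inhibitors lower the FRET signal by blocking Vif and A3G binding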
[5] = molecular target: Bcl-2-like protein 1 (Homo sapiens, UniProt Q07817); assay: BCL-XL inhibitors, dose response, selectivity assay for MCL1 inhibitor project, biochemical, fluorescence polarization, 1536-well (AID 2218)
[6] = molecular target: Induced myeloid leukemia cell differentiation protein Mcl-1 (Homo sapiens, UniProt Q07820); assay: MCL1-BIM BH3 interaction inhibitors, dose response, biochemical, fluorescence polarization, BIM-BH3 peptide, 1536-well (AID 2217)
[7] = Luminescence Cell-Based Dose Confirmation to Identify Activators of 5'UTR Stem-Loop Driven Alpha-Synuclein mRNA Translation in H4 Neuroglioblastoma Cells. [Related pubchem assays: 1829 (Project Summary), 1814 (Primary HTS)]; assay type: functional
[8] = Luminescence Cell-Based Dose Response to Identify Activators of 5'UTR Stem-Loop Driven Prion Protein mRNA Translation in H4-C Neuroglioblastoma Cells. [Related pubchem assays: 1829 (Project Summary), 1814 (Primary HTS)]; assay type: functional
[9] = Luminescence Cell-Based Dose Response to Identify Activators of Luciferase Translation or Activity in H4-C Neuroglioblastoma Cells. [Related pubchem assays: 1829 (Project Summary), 1814 (Primary HTS)]; assay type: functional
[10] = Concentration-dependent survival of SW480 colon cancer line, luminescence detection with CellTiter-Glo, half-maximal inhibitory concentration (AID 1117338); assay type: functional
[11] = CellTiter-Glo luminescent dose response of DLD-1 viability loss (AID 1117352); assay type: functional
[12] = cytotoxicity toward Colo320 cells – cell-based, CellTiter-Glo luminescence, IC50, dose response (AID 1117334); assay type: functional; details: COLO 320
[13] = SNU-C1 cell viability reduction, dose response, CellTiter-Glo luminescence (AID 1117323); assay type: functional, cell-based
[14] = cytotoxicity toward HT-29 cells – cell-based, CellTiter-Glo luminescence, IC50, dose response (AID 1117330); assay type: functional
[15] = RKO cell viability reduction, dose response, CellTiter-Glo luminescence (AID 1117322); assay type: functional
[16] = HeLa 4N DNA content increase, dose response, cell-based, IC50 (AID 1117351); assay type: functional
[17] = HeLa 2N DNA content increase, dose response, cell-based, IC50 (AID 1117349); assay type: functional
[18] = molecular target: NS3 (Hepatitis C virus, UniProt A3EZJ3); assay: PubChem AID 2173; design: species or system Hepacivirus hominis
[19] = molecular target: T1, Estrogen receptor (Homo sapiens, UniProt P03372);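 also: potency for inhibiting coactivator peptide recruitment to the receptor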
T1 sequence (P03372 whole entry): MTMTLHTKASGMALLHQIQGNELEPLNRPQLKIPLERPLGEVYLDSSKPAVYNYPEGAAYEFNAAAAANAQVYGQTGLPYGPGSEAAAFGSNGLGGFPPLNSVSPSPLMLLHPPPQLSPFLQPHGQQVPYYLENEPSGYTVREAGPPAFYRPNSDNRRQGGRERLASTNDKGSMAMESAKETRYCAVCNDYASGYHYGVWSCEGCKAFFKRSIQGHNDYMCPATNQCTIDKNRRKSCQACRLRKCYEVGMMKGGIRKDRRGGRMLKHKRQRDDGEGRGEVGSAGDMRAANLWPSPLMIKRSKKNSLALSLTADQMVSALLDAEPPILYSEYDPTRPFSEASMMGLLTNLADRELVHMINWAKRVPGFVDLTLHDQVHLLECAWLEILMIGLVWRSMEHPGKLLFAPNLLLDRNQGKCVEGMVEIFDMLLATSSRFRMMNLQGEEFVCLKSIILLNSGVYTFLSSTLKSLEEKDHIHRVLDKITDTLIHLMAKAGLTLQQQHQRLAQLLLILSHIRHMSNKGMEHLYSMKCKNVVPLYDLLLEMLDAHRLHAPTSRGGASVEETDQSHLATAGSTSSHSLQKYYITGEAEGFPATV

Sequence of NS3 (A3EZJ3 whole entry): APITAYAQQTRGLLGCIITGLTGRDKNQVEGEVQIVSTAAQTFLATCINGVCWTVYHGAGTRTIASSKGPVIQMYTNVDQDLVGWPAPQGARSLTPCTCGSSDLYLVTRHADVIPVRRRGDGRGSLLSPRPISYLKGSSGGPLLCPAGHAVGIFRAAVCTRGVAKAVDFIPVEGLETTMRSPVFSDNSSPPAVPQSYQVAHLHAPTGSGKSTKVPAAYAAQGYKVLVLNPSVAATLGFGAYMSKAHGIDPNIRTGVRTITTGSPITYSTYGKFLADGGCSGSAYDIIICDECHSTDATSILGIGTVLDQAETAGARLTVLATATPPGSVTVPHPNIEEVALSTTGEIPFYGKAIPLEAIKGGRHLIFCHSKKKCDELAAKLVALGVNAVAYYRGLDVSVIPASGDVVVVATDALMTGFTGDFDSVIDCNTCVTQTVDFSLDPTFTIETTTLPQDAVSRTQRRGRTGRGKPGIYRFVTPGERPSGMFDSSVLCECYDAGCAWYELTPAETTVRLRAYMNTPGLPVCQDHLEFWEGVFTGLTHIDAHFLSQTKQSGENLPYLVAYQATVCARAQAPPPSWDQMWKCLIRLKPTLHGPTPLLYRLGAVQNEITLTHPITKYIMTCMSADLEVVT
Sequence of Bcl-2-like protein 1 (Q07817 whole entry): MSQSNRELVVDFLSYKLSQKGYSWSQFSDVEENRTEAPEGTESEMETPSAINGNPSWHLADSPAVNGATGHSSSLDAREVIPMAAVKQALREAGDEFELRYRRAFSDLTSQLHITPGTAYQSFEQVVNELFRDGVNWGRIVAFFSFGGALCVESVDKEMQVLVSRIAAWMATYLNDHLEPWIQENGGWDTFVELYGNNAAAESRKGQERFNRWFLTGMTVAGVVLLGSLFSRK
Sequence of Induced myeloid leukemia cell differentiation protein Mcl-1 (Q07820 whole entry): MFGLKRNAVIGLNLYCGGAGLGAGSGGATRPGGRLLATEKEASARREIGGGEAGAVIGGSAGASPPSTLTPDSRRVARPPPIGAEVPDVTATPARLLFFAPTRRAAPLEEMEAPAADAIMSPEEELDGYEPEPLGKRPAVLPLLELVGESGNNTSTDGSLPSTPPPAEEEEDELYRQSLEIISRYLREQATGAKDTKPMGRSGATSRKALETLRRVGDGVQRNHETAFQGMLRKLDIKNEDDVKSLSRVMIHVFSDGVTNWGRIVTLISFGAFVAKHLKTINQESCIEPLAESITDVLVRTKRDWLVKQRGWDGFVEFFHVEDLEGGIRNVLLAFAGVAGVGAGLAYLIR

## CCCn1c(O)nnc1Sc1nnnn1-c1ccccc1
[1]
  EC50: 40.1 µM (active)
[2]
  EC50: 6.75 µM (active)
[3]
  EC50: > 120 µM (not active)
[4]
  IC50: > 100 µM (active)

## O=S(=O)(Nc1ccc(N2CCOCC2)cc1)c1ccccc1
[4]
  IC50: > 100 µM (active)

## O=C(Cn1cnc2sc(-c3ccccc3)cc2c1=O)NCc1ccco1
[5]
  IC50: > 109 µM (not active)
[6]
  IC50: 5.16 µM (active)

## COc1cc(NC(=O)c2cc3nc(C)cc(C)n3n2)c(OC)cc1Cl
[7]
  EC50: 0.392 µM (active)
[2]
  EC50: 0.278 µM (active)
[8]
  EC50: 0.389 µM (active)
[3]
  EC50: < 0.1 µM (active)
[9]
  EC50: 0.323 µM (active)

## O=c1[nH]cc(F)c(=O)[nH]1 [FLUOROURACIL]
[10]
  IC50: > 20 µM (inactive)
[11]
  IC50: > 20 µM (inactive)
[12]
  IC50: > 20 µM (inactive)
[13]
  IC50: > 20 µM (inactive)
[14]
  IC50: > 20 µM (inactive)
[15]
  IC50: > 20 µM (inactive)
[16]
  IC50: > 10 µM (inactive)
[17]
  IC50: > 10 µM (inactive)

## O=C(C1=C(O)C(=O)N(Cc2ccco2)C1c1cccc(Cl)c1)c1ccc2c(c1)OCCO2 (configuration not stated)
[18]
  IC50: 4.61 µM (active)

## O=C(COc1ccccc1)Nc1ccc(Cl)c(-c2nc3ncccc3o2)c1
[19]
  IC50: > 50 µM (not active)

## CCOC(=O)c1s/c(=N\C(=O)/C=C/c2cccs2)n(C)c1C
[7]
  EC50: 0.315 µM (active)
[2]
  EC50: < 0.1 µM (inconclusive)
[8]
  EC50: 2.23 µM (active)
[3]
  EC50: 1.08 µM (active)
[9]
  EC50: > 12 µM (not active)
